Assay results: ChEMBL document CHEMBL1130745, “Inhibitory effect and action mechanism of sesquiterpenes from Zedoariae Rhizoma on D-galactosamine/lipopolysaccharide-induced liver injury” (1998)

What was measured:
Type in all cases: functional
Rattus norvegicus = species: Rattus norvegicus; experiment: In vitro hepatocytotoxicity induced by D-GalN in primary cultured rat hepatocytes at a concentration of 10e-4 M; settings: Hepatocyte
Mus musculus [1] = experiment: In vivo inhibitory activity on the increase of serum GOT induced by D-GalN / LPS (liver injury) in mice at 50 mg/kg peroral administration; settings: route oral
Mus musculus [2] = experiment: In vivo inhibitory activity on the increase of serum GPT induced by D-GalN / LPS (liver injury) in mice at 50 mg/kg peroral administration; settings: route oral
Mus musculus [3] = species: Mus musculus; experiment: In vitro inhibitory activity on the production of nitric oxide (NO) induced by LPS in mouse peritoneal macrophages at a concentration of 10e-4 M
Mus musculus [4] = experiment: In vivo inhibitory activity on the increase of serum GOT induced by D-GalN / LPS (liver injury) in mice at 20 mg/kg peroral administration; settings: route oral

Structure (SMILES)	inhibition at 100 µM (Rattus norvegicus)	inhibition in vivo at 50 mg/kg (Mus musculus [1])	inhibition in vivo at 50 mg/kg (Mus musculus [2])	inhibition at 100 µM (Mus musculus [3])	inhibition in vivo at 20 mg/kg (Mus musculus [4])
C/C1=C\CC[C@H](C)C(=O)C[C@@H](C(C)C)C(=O)C1	77.1%	74.6%	76.6%	2%	
CC(C)=C1CC(=O)[C@@H](C)CC/C=C(\C)CC1=O	-6.3%	46.2%	49.7%	53.7%	
CC(=O)CC[C@H]1[C@@H]2CC(=C(C)C)C(=O)C[C@]12C	-12.2%	88%	90.1%	13%	
C=C1CC(=O)C(=C(C)C)CC2[C@H]1CC[C@]2(C)O (some centres undefined)	-5.2%	22.3%	26.7%	54.5%	
C/C1=C\CC[C@@H](C)C(=O)C[C@@H](C(C)C)C(=O)C1	44.6%	58.4%	59.3%	41.9%	
CC(C)=C1C/C=C(\C)CC/C=C(\C)CC1=O	59.8%	78.1%	82.9%	46.8%	
CC1=CC(=O)C(=C(C)C)CC2[C@@](C)(O)CC[C@]12O (some centres undefined)	-41.5%	89.1%	88%	-8.8%	
C/C1=C\CC[C@]2(C)O[C@H]2C(=O)c2c(C)coc2C1	-7.9%	35.4%	39.5%	-5%	
CC(C)=C1CC2[C@@H](CC[C@]2(C)O)[C@](C)(O)CC1=O (some centres undefined)	-35.6%	54.7%	60.7%	31.7%	
C/C1=C\C/C(=C(/C)CO)C(=O)C/C(C)=C/CC1	-21.7%	21.5%	36.1%	-14.6%	
CC1=CC2(O)O[C@@]3(CC2=C(C)C)[C@@H](C)CC[C@@H]13 (single isomer, unassigned) [CURCUMENOL]	25.1%	53.3%	50.7%	50.4%	
C[C@]12CCC(=O)C=C1CCC1[C@@H]2[C@@H](O)C[C@@]2(C)[C@H]1CC[C@]2(O)C(=O)CO (single isomer, unassigned) [HYDROCORTISONE]			99%	92.6%	98.3%
C=C1CC2(O)O[C@@]3(CC2=C(C)C)[C@@H](C)CC[C@@H]13 (single isomer, unassigned) [ISOCURCUMENOL]	14.2%	80.2%	77.3%	36.5%	
COc1cc(/C=C/C(=O)CC(=O)/C=C/c2ccc(O)c(OC)c2)ccc1O [CURCUMIN]	-44.3%	63.4%	71.2%	98.8%	
C/C1=C\Cc2c(C)coc2C/C(C)=C/CC1 [ISOFURANODIENE]	-0.5%	74.3%	72.9%	96.1%	
